These results are taken from patent US20240299394A1, “TARGETED TREATMENT FOR SKIN FRAGILITY DISEASES” (University of Washington, priority 2023, published 2024).

The subject of data set [1] is ERK. As to the kind of experiment: Western blotting of pERK in NHEK lysates. The format is cell-based, human. The conditions noted are these: Dab 1 μM or Vem 10 μM alone, 24 hours in E-medium, vs DMSO. Here is the method: NHEKs were seeded at a density of 1×10^6 cells per well of 6-well cell culture dishes in M154. Upon reaching confluence, M154 was replaced with E-medium containing vehicle control (DMSO) or inhibitors at the following concentrations: Dabrafenib (1 μM), vemurafenib (10 μM), trametinib (1 μM). After 24 hours, whole-cell lysates were generated by washing cells once in phosphate-buffered saline (PBS) followed by lysis in urea sample buffer [8 M Urea, 60 mM Tris, 1% SDS, 10% glycerol, 5% β-mercaptoethanol, 0.0005% pyronin-Y, pH 6.8] for 10 min. Lysates were homogenized using a microtip probe sonicator (Fisher Scientific).
Whole-cell lysates were loaded onto NuPAGE 12% Bis-Tris Gels (Thermo-Fisher Cat. #NP0343BOX) and separated by electrophoresis using NuPAGE MES SDS Running Buffer (Thermo-Fisher Cat. #NP0002). Proteins were transferred onto Immobilon-FL membrane (Millipore of Burlington, MA, Cat. #IPFL85R) in transfer buffer (25 mM Tris, 192 mM glycine, 20% (v/v) methanol) at 50 volts (V) for 60 minutes. Membranes were blocked in Intercept tris-buffered saline (TBS) blocking buffer (LI-COR) for 60 minutes at room temperature. Membranes were probed overnight at 4° C. with the primary antibodies diluted in Intercept TBS blocking buffer (LI-COR). […]

The test system of data set [2] is ERK. As to the kind of experiment: ERK biosensor (ERK-KTR-mClover) live imaging. The format is cell-based, human. The settings on record: Dab or Vem alone, 24 h, 1.2 mM calcium. Here is the method: For live imaging of the ERK biosensor, NHEKs were transduced with ERK-KTR-mClover (Addgene Cat. #59150). HEK293FT cells were grown in complete DMEM, then transfected with 4 μg pLenti-CMV-PuroDEST-ERK-KTR-mClover DNA plus 12 μl FuGENE 6 (Promega of Madison, WI, Cat. #E2691) in 800 μL of Opti-MEM (Thermo-Fisher Cat. #31985070), which was added to the cells and left overnight. Lentiviral supernatants were collected the next day and polybrene (Sigma Cat. #H9268) was added at a concentration of 4 μg/mL. M154 was removed from NHEKs and replaced with viral medium for 1 hour at 37° C. Cells were then washed in PBS and placed back in their normal medium and expanded in culture.
ERK-KTR-mClover-transduced cells were seeded into 35 mm glass-bottom dishes in low calcium medium (0.31 mM) and grown to confluency. […] Using Fiji (Fiji software, https://github.com/fiji/fiji), the nuclear region was encircled with the polygon tool and the “Measure” function was used to calculate the mean fluorescence intensity; after using the “Cut” function to remove the nuclear region, then remaining cytoplasmic region was encircled with the polygon tool and the “Measure” function was used to calculate the mean fluorescence intensity. The ERK activity index was calculated as the ratio of the cytoplasmic integrated fluorescence intensity (active) to the nuclear integrated fluorescence intensity.

Data set [3] has as its system NHEKs. As to the kind of experiment: Immunofluorescence of plakoglobin / desmosomal protein localization. It counts as cell-based, human. The settings on record: B-RAF inhibitor alone, 24 hours in E-medium. On the procedure: Keratinocytes were grown to confluency in 35 mm glass-bottom cell culture dishes (MatTek of Ashland, MA, Cat. #P35G-1.5-20-C). For staining keratins and desmosomal proteins, cells were fixed in ice-cold 100% methanol at −20° C. for 2 minutes, allowed to dry, then re-hydrated in PBS. For staining other proteins, cells were fixed in 4% paraformaldehyde for 10 minutes at 37° C. Fixed cells were then incubated with blocking buffer [0.5% (w/v) bovine serum albumin (BSA, Sigma), 10% (w/v) normal goat serum (NGS, Sigma) in PBS] for 30 min at 37° C. Cells were then washed with PBS. Primary antibodies were diluted in 0.5% (w/v) BSA in PBS and incubated on the cells overnight at 4° C. Primary antibody dilutions were as follows: chicken anti-plakoglobin (1:1000). […]
Images were acquired on a Hamamatsu ORCA-FusionBT sCMOS camera (Hamamatsu of Hamamatsu City, Japan) using a Yokogawa W1 spinning-disk confocal (SDC) system (Yokogawa of Musashino, Tokyo, Japan) on a Nikon Ti2 microscope (Nikon of Minato City, Tokyo, Japan). Samples were illuminated using 405, 488, 561, and 640 nm laser excitation lines and fluorescence was detected using a 60×1.2 numerical aperture (NA) water objective (Nikon) with standard emission filters.

For data set [4], the system named is NHEK monolayers. As to the kind of experiment: Monolayer mechanical dissociation assay, B-RAF inhibitor model of Grover disease. It counts as cell-based, human. The settings on record: Dabrafenib 1 μM or vemurafenib 10 μM alone, 24 h. Here is the method: Dispase-based mechanical dissociation assays were carried out as described (70). Keratinocytes were plated at a density of 1×10^6 cells per well of 6-well cell culture dishes. Upon reaching confluence, the cells were switched into E-medium. Vehicle control (DMSO) or chemical inhibitors were added at the following concentrations: Dabrafenib (1 μM), vemurafenib (10 μM) trametinib (1 μM), U0126 (10 μM), or PD98059 (20 μM). After 24 h, monolayers were washed with PBS and then incubated with 500 μL dispase (5 U/ml) in Hank's balanced salt solution (Stemcell Technologies of Vancouver, Canada, Cat. #07913) for 30 minutes at 37° C. Next, 4.5 mL PBS was added to the wells and all liquid plus released monolayers were transferred into 15 mL conical tubes, which were placed together in a rack and inverted 1-10 times to induce mechanical stress. Monolayer fragments were transferred back into 6-well cell culture plates and imaged with a 12-megapixel digital camera. Fragments were counted in Fiji.

The conditions of data set [5]: B-RAF inhibitor monotherapy for cancer (Carlos G, et al. 2015); cited from earlier work.

Structures are written as SMILES.

As for `CC(C)(C)c1nc(-c2cccc(NS(=O)(=O)c3c(F)cccc3F)c2F)c(-c2ccnc(N)n2)s1` [dabrafenib], the “pERK by Western blotting” value in data set [1] is “sufficient to increase the active phosphorylated form of ERK (pERK)”. Moreover, the “ERK activity (biosensor)” value in data set [2] is reported as “induced ERK activation”. For the same compound, the “localization of desmosomal proteins” value in data set [3] is listed as “induced mislocalization of desmosomal proteins”. In addition, the “number of fragments upon mechanical stress” value in data set [4] was “an increase in the number of fragments”; in data set [4] (listed as Dab), “readily fragmented”. In addition, the “patients in whom GD was seen” value in data set [5] is 42.9%.
